The values below come from patent US20230407365A1, “DIAGNOSTIC TOOL FOR SCREENING THE IMPACT OF PRODUCT INGREDIENTS FOR UROGENITAL MICROBIOMES THERAPIES” (priority 2022, published 2023).

The test system of assay [1] is L. crispatus. In words: L. crispatus in anaerobic conditions at 37° C., OD 600 nm (FIG. 19). It is filed as cell-based. As for the experimental part: 1910. […] Confirmation as lactobacilli was confirmed by qPCR. The treatment results are measured by OD 600 nm 1715 of one embodiment.
The test system of assay [2] is L. gasseri. Kind of assay: L. gasseri in anaerobic conditions at 37° C., OD 600 nm (FIG. 20). It is filed as cell-based. As for the experimental part: 2010. […] Confirmation as lactobacilli was confirmed by qPCR. The treatment results are measured by OD 600 nm 1715 of one embodiment.
The next assay deals with E. coli. In words: Quantitative analysis of actives for cannabinoids, culture growth by OD 600 nm (FIG. 18). It is filed as cell-based. The following applies: aerobic conditions; compared with No treatment Ctrl. The protocol: FIGS. 17A, 17B and 18 show the results of quantitative analysis of actives for cannabinoids for Lactobacillus crispatus, Lactobacillus gasseri and E. coli. Each sample is treated with a CBD distillate, THC distillate, and De Man, Rogosa and Sharpe (MRS) agar plates as indicated on chart. Additionally, a CBD isolate of the samples is also treated.
The treatment results are measured by OD 600 nm 1715 of one embodiment.

A further assay has as its system Streptococcus pneumoniae. The following applies: reported; cited from earlier work.
The subject of a further assay is Candida albicans. Kind of assay: CBD effects on C. albicans, normalized optical density (FIG. 16A). It is filed as cell-based. The following applies: anaerobically cultured Candida albicans.
A further assay has as its system Staphylococcus aureus. The following applies: reported; cited from earlier work.
For assay [3], the system named is L. crispatus. Kind of assay: Inhibition results, OD 600 nm (FIG. 21). The following applies: MRS broth. It is filed as cell-based. As for the experimental part: (§1) Treatments included Product R 2150, Erythromycin 2152, No trt 2154, and Ctrl 2156. […] A drop in pH was expected and observed. Follow up treatments should include a positive control using a gram-positive antibiotic, e.g erythromycin, vancomycin or tetracycline, to show inhibition of the lactobacilli strains L. gasseri 2130 and L. crispatus 2140. The treatment results are measured by OD 600 nm 1715 of one embodiment.

Assay [4] concerns L. gasseri. Kind of assay: Inhibition results, OD 600 nm (FIG. 21). It is filed as cell-based. The following applies: MRS broth. The protocol:
as §1

With `C=C(C)[C@@H]1CCC(C)=C[C@H]1c1c(O)cc(CCCCC)cc1O` [CBD isolate, cannabidiol], the “inhibition of growth (OD 600 nm)” value in the assay on L. crispatus [1] and in the assay with L. gasseri [2] was “lack of inhibition” each time. In addition, the “treatment results measured by OD 600 nm over treatment exposure times (growth inhibition)” value in the assay on E. coli is “relatively similar results”.
In the case of `C=C(C)[C@@H]1CCC(C)=C[C@H]1c1c(O)cc(CCCCC)cc1O` [CBD, cannabidiol], the inhibitory levels result in the assay with Streptococcus pneumoniae and in the assay on Staphylococcus aureus was “low micromolar range” in each case. Moreover, the “CBD effects on C. albicans (Normalized Optical Density over time)” value in the assay on Candida albicans is recorded as “positive result”.
Regarding `CC[C@H]1OC(=O)[C@H](C)[C@@H](O[C@H]2C[C@@](C)(OC)[C@@H](O)[C@H](C)O2)[C@H](C)[C@@H](O[C@@H]2O[C@H](C)C[C@H](N(C)C)[C@H]2O)[C@](C)(O)C[C@@H](C)C(=O)[C@H](C)[C@@H](O)[C@]1(C)O` [Erythromycin], the “inhibition of growth (OD 600 nm)” value in the assay on L. crispatus [3] and in the assay with L. gasseri [4] was “no observed inhibition of growth” in each case.
